Experimental data taken from patent publication US9090671B2, “Macrocyclic peptides” (Scynexis, Inc., priority 2008, dated 2015).

Assays:
[1] = tested on: HCV RNA replicon ET (luc ubi neo/ET); test: HCV RNA replicon luciferase assay in human hepatoma cell line ET; type: cell-based; details: Hepatitis C virus, 72 hours, read-out: EC50, effective concentration that reduced viral replication by 50% (HCV RNA replicon derived LUC activity)
Protocol: Representative compounds of the present invention were tested for activity against HCV using the methods adapted from those described by Kriger et al., 2001, Journal of Virology 75:4614-4624, Pietschmann et al., 2002, Journal of Virology, 76:4008-4021, and using HCV RNA constructs as described in U.S. Pat. No. 6,630,343. Compounds were examined in the human hepatoma cell line ET (lub ubi neo/ET), a HCV RNA replicon containing a stable luciferase (LUC) reporter. The HCV RNA replicon ET contains the 5′ end of HCV (with the HCV Internal Ribosome Entry Site (IRES) and the first few amino acids of the HCV core protein) which drives the production of a firefly luciferase (LUC), ubiquitin, and neomycin phosphotransferase (NeoR) fusion protein. Ubiquitin cleavage releases the LUC and NeoR proteins. The EMCV IRES element controls the translation of the HCV […] NS3-NS5. The NS3 protein cleaves the HCV polyprotein to release the mature NS3, NS4A, NS4B, NS5A and NS5B proteins that are required for HCV replication. At the 3′ end of the replicon is the authentic 3′ NTR of HCV. The activity of the LUC reporter is directly proportional to HCV replication levels and positive-control antiviral compounds produce a reproducible antiviral response using the LUC endpoint.
The compounds were dissolved in DMSO at five half-log concentrations each, ranging from either 0.03 to 3 μM or 1 to 100 μM. Subconfluent cultures of the ET line were plated out into 96 well plates dedicated for the analysis of cell numbers (cytotoxicity) or antiviral activity and the next day the compounds were added to the appropriate wells. […] Compound EC50 and EC90 values were derived from HCV RNA levels assessed as HCV RNA replicon derived LUC activity. Cytotoxicity was expressed as IC50 and IC90, the concentration of compound that inhibited cell viability by 50% and 90%, respectively. Compound IC50 and IC90 values were calculated using a colorimetric assay as an indication of cell numbers and cytotoxicity. The activity of the LUC reporter is directly proportional to HCV RNA levels in the human cell line. The HCV-replicon assay was validated in parallel experiments using interferon-alpha-2b as a positive control. Cyclosporine was also tested by way of comparison.

cyclophilin D = cyclophilin D (Homo sapiens, UniProt P30405); test: Cyclophilin binding competitive ELISA (cyclophilin D); details: human recombinant cyclophilin, read-out: EC50, concentration required to achieve 50% inhibition, against cyclophilin D
Sequence of cyclophilin D (P30405 30-207): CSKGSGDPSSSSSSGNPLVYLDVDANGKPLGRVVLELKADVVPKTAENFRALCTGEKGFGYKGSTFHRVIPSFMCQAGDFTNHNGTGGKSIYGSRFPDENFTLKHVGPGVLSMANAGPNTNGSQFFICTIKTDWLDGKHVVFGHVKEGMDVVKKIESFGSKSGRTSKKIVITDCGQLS
Protocol: (§1) The cyclophilin inhibition binding of compounds disclosed herein is determined using a competitive ELISA adapted from the methods described by Quesniaux et al. (Eur. J. Immunol., 1987, 17:1359-1365). Activated ester of succinyl spacers bound to D-Lys^8-cyclosporine A (D-Lys^8-Cs) are coupled to bovine serum albumin (BSA) through D-lysyl residue in position 8. BSA is dissolved in 0.1 M borate buffer, pH 9.0 (4 mg in 1.4 ml). A hundredfold molar excess of D-Lys^8-Cs dissolved in dimethyl formamide (0.6 ml) is added drop wise to the BSA under vigorous stirring.
(§2) Microtiter Plates are coated with D-Lys^8-Cs-BSA conjugate (2 μg/ml in PBS for 24 hours at 4° C.). Plates are washed with Tween®/PBS and with PBS alone. To block nonspecific binding, 2% BSA/PBS (pH 7.4) is added to the wells and allowed to incubate for 2 hours at 37° C. […] Cyclophilin is detected with anti-cyclophilin rabbit antiserum diluted in 1% BSA containing PBS and incubates overnight at 4° C. […] Bound rabbit antibodies are then detected by goat anti-rabbit IgG conjugated to alkaline phosphatase diluted in 1% BSA-PBS and allowed to incubate for 2 hours at 37° C. […] After incubation with 4-nitrophenyl phosphate (1 g/l in diethanolamine buffer, pH 9.8) for 1 to 2 hours at 37° C., the enzymatic reaction is measured spectrophotometrically at 405 nm using a spectrophotometer. […]

cyclophilin B = cyclophilin B (Homo sapiens, UniProt P23284); test: Cyclophilin binding competitive ELISA (cyclophilin B); details: human recombinant cyclophilin, read-out: EC50, concentration required to achieve 50% inhibition, against cyclophilin B
Sequence of cyclophilin B (P23284 34-216): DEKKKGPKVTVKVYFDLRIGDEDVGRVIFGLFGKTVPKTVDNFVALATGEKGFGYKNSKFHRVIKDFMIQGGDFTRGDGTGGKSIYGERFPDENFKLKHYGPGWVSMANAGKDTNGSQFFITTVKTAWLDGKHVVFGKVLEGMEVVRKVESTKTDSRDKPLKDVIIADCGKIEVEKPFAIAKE
Protocol: as §1, §2

cyclophilin A = cyclophilin A (Homo sapiens, UniProt P62937); test: Cyclophilin binding competitive ELISA (cyclophilin A); details: human recombinant cyclophilin, read-out: EC50, concentration required to achieve 50% inhibition, against cyclophilin A
Sequence of cyclophilin A (P62937 whole entry): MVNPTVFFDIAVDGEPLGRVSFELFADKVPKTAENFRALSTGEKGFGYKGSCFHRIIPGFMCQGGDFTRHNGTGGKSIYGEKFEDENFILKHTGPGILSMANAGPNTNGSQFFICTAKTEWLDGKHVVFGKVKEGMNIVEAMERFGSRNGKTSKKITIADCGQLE
Protocol: as §1, §2

SMILES	EC50 [1] [nM]	other results
CC=CCC(C)C(O)C1C(=O)NC(CC)C(=O)N(C)C(SC)C(=O)N(C)C(CC(C)C)C(=O)N(CC=CCN(C)C)C(C(C)C)C(=O)N(C)C(CC(C)C)C(=O)NC(C)C(=O)NC(C)C(=O)N(C)C(CC(C)C)C(=O)N(C)C(CC(C)C)C(=O)N(C)C(C(C)C)C(=O)N1C (stereo not drawn) [Compound 16, [Methylthio-Sar]^3-N-[trans-4-dimethylamino-but-2-enyl]-Val^5-cyclosporine A]	< 1000	–
CC=CCC(C)C(O)C1C(=O)NC(CC)C(=O)N(C)C(OC)C(=O)N(C)C(CC(C)C)C(=O)N(CC=CC)C(C(C)C)C(=O)N(C)C(CC(C)C)C(=O)NC(C)C(=O)NC(C)C(=O)N(C)C(CC(C)C)C(=O)N(C)C(CC(C)C)C(=O)N(C)C(C(C)C)C(=O)N1C (centres unmarked) [Compound 9, [Methoxy-Sar]^3-(N-but-2-enyl)-Val^5-cyclosporine A]	< 1000	–
CC=CCC(C)C(O)C1C(=O)NC(CC)C(=O)N(C)C(OC)C(=O)N(C)C(CC(C)C)C(=O)N(Cc2ccccc2)C(C(C)C)C(=O)N(C)C(CC(C)C)C(=O)NC(C)C(=O)NC(C)C(=O)N(C)C(CC(C)C)C(=O)N(C)C(CC(C)C)C(=O)N(C)C(C(C)C)C(=O)N1C (centres unmarked) [Compound 6, [Methoxy-Sar]^3-(N-benzyl)-Val^5-cyclosporine A]	< 1000	–
CC=CCC(C)C(O)C1C(=O)NC(CC)C(=O)N(C)C(OC)C(=O)N(C)C(CC(C)C)C(=O)N(CC=C(C)C)C(C(C)C)C(=O)N(C)C(CC(C)C)C(=O)NC(C)C(=O)NC(C)C(=O)N(C)C(CC(C)C)C(=O)N(C)C(CC(C)C)C(=O)N(C)C(C(C)C)C(=O)N1C (centres unmarked) [Compound 10, [Methoxy-Sar]^3-(N-3-methyl-but-2-enyl)-Val^5-cyclosporine A]	< 1000	–
CC=CCC(C)C(O)C1C(=O)NC(CC)C(=O)N(C)C(OC)C(=O)N(C)C(CC(C)C)C(=O)N(CC=CCO)C(C(C)C)C(=O)N(C)C(CC(C)C)C(=O)NC(C)C(=O)NC(C)C(=O)N(C)C(CC(C)C)C(=O)N(C)C(CC(C)C)C(=O)N(C)C(C(C)C)C(=O)N1C (stereo not drawn) [Compound 15, [Methoxy-Sar]^3-N-[trans-4-hydroxy-but-2-enyl]-Val^5-cyclosporine A]	< 1000	–
C/C=C/C[C@@H](C)[C@@H](O)[C@H]1C(=O)N[C@@H](CC)C(=O)N(C)C(SC)C(=O)N(C)[C@@H](CC(C)C)C(=O)N(Cc2ccccc2)[C@@H](C(C)C)C(=O)N(C)[C@@H](CC(C)C)C(=O)N[C@@H](C)C(=O)N[C@H](C)C(=O)N(C)[C@@H](CC(C)C)C(=O)N(C)[C@@H](CC(C)C)C(=O)N(C)[C@@H](C(C)C)C(=O)N1C (some centres unmarked) [Compound 4, [Methylthio-Sar]^3-(N-benzyl)-Val^5-cyclosporine A]	< 1000	EC50 (cyclophilin D): > 600 nM
CC=CCC(C)C(O)C1C(=O)NC(CC)C(=O)N(C)C(SCCC)C(=O)N(C)C(CC(C)C)C(=O)N(Cc2ccccc2)C(C(C)C)C(=O)N(C)C(CC(C)C)C(=O)NC(C)C(=O)NC(C)C(=O)N(C)C(CC(C)C)C(=O)N(C)C(CC(C)C)C(=O)N(C)C(C(C)C)C(=O)N1C (centres unmarked) [Compound 5, [n-Propylthio-Sar]^3-(N-benzyl)-Val^5-cyclosporine A]	> 1000	EC50 (cyclophilin D): > 600 nM; EC50 (cyclophilin B): > 600 nM; EC50 (cyclophilin A): > 600 nM
CC=CCC(C)C(O)C1C(=O)NC(CC)C(=O)N(C)C(SC)C(=O)N(C)C(CC(C)C)C(=O)N(CC=CCO)C(C(C)C)C(=O)N(C)C(CC(C)C)C(=O)NC(C)C(=O)NC(C)C(=O)N(C)C(CC(C)C)C(=O)N(C)C(CC(C)C)C(=O)N(C)C(C(C)C)C(=O)N1C (stereo not drawn) [Compound 14, [Methylthio-Sar]^3-N-[trans-4-hydroxy-but-2-enyl]-Val^5-cyclosporine A]	< 1000	–
CC=CCC(C)C(O)C1C(=O)NC(CC)C(=O)N(C)C(OC)C(=O)N(C)C(CC(C)C)C(=O)N(CC=CCN(C)C)C(C(C)C)C(=O)N(C)C(CC(C)C)C(=O)NC(C)C(=O)NC(C)C(=O)N(C)C(CC(C)C)C(=O)N(C)C(CC(C)C)C(=O)N(C)C(C(C)C)C(=O)N1C (stereo not drawn) [Compound 17, [Methoxy-Sar]^3-N-[trans-4-dimethylamino-but-2-enyl]-Val^5-cyclosporine A]	< 1000	–
CC=CCC(C)C(O)C1C(=O)NC(CC)C(=O)N(C)C(OC)C(=O)N(C)C(CC(C)C)C(=O)N(Cc2cccc(C(F)(F)F)c2)C(C(C)C)C(=O)N(C)C(CC(C)C)C(=O)NC(C)C(=O)NC(C)C(=O)N(C)C(CC(C)C)C(=O)N(C)C(CC(C)C)C(=O)N(C)C(C(C)C)C(=O)N1C (centres unmarked) [Compound 7, [Methoxy-Sar]^3-(3-trifluoromethylbenzyl)-Val^5-cyclosporine A]	< 1000	–
C=CCN1C(=O)C(CC(C)C)N(C)C(=O)C(OC)N(C)C(=O)C(CC)NC(=O)C(C(O)C(C)CC=CC)N(C)C(=O)C(C(C)C)N(C)C(=O)C(CC(C)C)N(C)C(=O)C(CC(C)C)N(C)C(=O)C(C)NC(=O)C(C)NC(=O)C(CC(C)C)N(C)C(=O)C1C(C)C (centres unmarked) [Compound 8, [Methoxy-Sar]^3-(N-allyl)-Val^5-cyclosporine A]	< 1000	–
CC=CCC(C)C(O)C1C(=O)NC(CC)C(=O)N(C)C(OC)C(=O)N(C)C(CC(C)C)C(=O)N(CC=CCOCc2ccccc2)C(C(C)C)C(=O)N(C)C(CC(C)C)C(=O)NC(C)C(=O)NC(C)C(=O)N(C)C(CC(C)C)C(=O)N(C)C(CC(C)C)C(=O)N(C)C(C(C)C)C(=O)N1C (stereo not drawn) [Compound 11, [Methoxy-Sar]^3-N-(trans-4-benzyloxy-but-2-enyl)-Val^5-cyclosporine A]	< 1000	–
CC=CCC(C)C(O)C1C(=O)NC(CC)C(=O)N(C)C(SCCN(C)C)C(=O)N(C)C(CC(C)C)C(=O)N(Cc2ccccc2)C(C(C)C)C(=O)N(C)C(CC(C)C)C(=O)NC(C)C(=O)NC(C)C(=O)N(C)C(CC(C)C)C(=O)N(C)C(CC(C)C)C(=O)N(C)C(C(C)C)C(=O)N1C [Compound 1, [(R)-2-(N,N-Dimethylamino)ethylthio-Sar]^3-(N-benzyl)-Val^5-cyclosporine A]	< 1000	–
